Assay results taken from patent publication US7579356B2, “Thia-tetraazaacenaphthylene kinase inhibitors” (Janssen Pharmaceutica NV, priority 2005, dated 2009).

System: Human epidermoid A431 carcinoma
Assay: In Vivo Models - Inhibition of Tumor Growth, A431
Conditions: 100 mg/kg, oral daily for 30 days, athymic mice
Protocol: In Vivo Models—Inhibition of Tumor Growth
The ability of test compounds to inhibit unregulated growth of human tumor cells in vivo was evaluated by implanting human tumor cells into the hindflank of athymic mice, administering a test compound and then quantifying any change in tumor size.
Human epidermoid A431 carcinoma, N87 cells and BT474 cells were implanted subcutaneously into the hindflank of female athymic mice (Charles River) and allowed to grow for 6-10 days. After a measurable tumor was established (as determined by baseline caliper measurement), the animal was administered an oral dose of the test compound daily for a period of 30 days. Tumor size was measured every five days and the degree of inhibition was determined by comparing drug-treated animals to vehicle-treated animals.
Variations of this method are intended to include intraperitoneal injection or intravenous infusion as the route of administration and administration of the test compound either alone or in a combination therapy.
The inhibition of tumor growth values are shown in Table 8 at various test concentrations, as indicated. For compounds with multiple values at one test concentration, each value represents a separate assay result.

O=C(Nc1ccc(CN2CCCCC2)cc1)c1sc2ncnc3c2c1NC(=O)N3c1ccc(Sc2ccccc2)cc1 [Cpd 169, 4-oxo-5-(4-phenylsulfanyl-phenyl)-4,5-dihydro-3H-1-thia-3,5,6,8-tetraaza-acenaphthylene-2-carboxylic acid (4-piperidin-1-ylmethyl-phenyl)-amide]
percent inhibition A431: 55.4%
